Experimental data reported in patent US11370788B2, “Substituted imidazo[4,5-c]quinoline compounds with an N-1 branched group” (3M INNOVATIVE PROPERTIES COMPANY, priority 2018, dated 2022).

Test system: Human peripheral blood mononuclear cells (PBMC)
Experiment: Cytokine Induction in Human Cells (PBMC)
Type: cell-based
Details: 21-24 hours culture, lowest concentration giving cytokine at least 2× negative control; for MEC to Induce Cytokine IFN-alpha: ELISA; for MEC to Induce Cytokine IFN-gamma / MEC to Induce Cytokine TNF-alpha: multiplex bead assay
Protocol: Whole blood was obtained from healthy human donors and collected by venipuncture into vacutainer tubes or syringes containing EDTA. Human peripheral blood mononuclear cells (PBMC) were purified from the whole blood by density gradient centrifugation. Histopaque 1077 (15 mL, Sigma, St. Louis, Mo.) was transferred to 6×50 mL sterile polypropylene conical tubes. The Histopaque was overlayed with 15-25 mL of blood diluted 1:2 in Hank's Balanced Salts Solution (HBSS) (Gibco, Life Technology, Grand Island, N.Y.). The tubes were then centrifuged at 1370 rpm for 30 minutes at 20° C., with no brake (400λg, GH 3.8A Rotor).
The interface (buffy coat) containing the PBMC was collected and placed in a new sterile 50 mL conical polypropylene centrifuge tube. The PBMC were mixed with an equal volume of HBSS (about 20 mL from the interface and about 20 mL of HBSS), and then centrifuged at 1090 rpm, 10 minutes, 20° C., with brake (270λg, GH 3.8A Rotor). After completing centrifugation, the cells were resuspended in 2 to 3 mL ACK Red blood cell lysis buffer (ammonium chloride potassium solution, Gibco, Life Technology) and incubated for 2-5 minutes at 20° C. Next, HBSS (40 mL) was added to the cells, and the sample was centrifuged at 270×g for 10 minutes at 20° C. The supernatant was decanted, and the cell pellet was resuspended in 5 mL AIM V Medium (Gibco, Life Technology). Cell aggregates and debris were removed by filtering the cell solution through a BD Falcon 70 micron nylon cell strainer (BD Biosciences, San Jose, Calif.).
The number of viable cells was determined by counting with a Miltenyi FACS instrument (Miltenyi Biotec Inc., San Diego, Calif.) or by using a hemacytometer. For determining cell viability with a hemacytometer, the cells were diluted 1/10 in 0.4% trypan blue and HBSS (specifically, 50 microliter of trypan blue+40 microliter of HBSS+10 microliter of cell solution were added to a microfuge tube and mixed). Ten microliters of the diluted cells were then applied to the hemacytometer, and the number of viable PBMC were determined by microscopy.
The PBMC sample was then resuspended in 96-well plates at a concentration of 8×10^5 cells/well in 0.1 mL of AIM-V medium. Each compound was solubilized in DMSO to create a 3 mM stock solution. The stock solution was then further diluted with AIM-V medium to prepare the serial dilutions. The diluted compound (100 microliters) was then transferred to the PBMCs to achieve final compound concentrations of 30, 10, 3.3, 1.1, 0.37, 0.12, 0.04, 0.01 micromolar. The plates also had both positive and negative controls. The negative control wells contained only AIM-V medium with no example compound. The positive control wells contained imiquimod serially diluted to concentrations of 30, 10, 3.3, 1.1, 0.37, 0.12, 0.04, 0.01 micromolar. The plates were then cultured at 37° C./5% CO2 for 21-24 hours. Cell-free supernatants were harvested by centrifuging the 96-well plates at 2100 rpm, 23° C. for 10 minutes. Approximately 160 microliter of the supernatant was then stored in a NUNC 96-well plate, covered with the compression cap and stored at −80° C. until the cytokine analysis was done.
IFN-alpha cytokine levels (picograms/mL) were measured by ELISA (human IFN-alpha, pan specific, Mabtech, Cincinnati, Ohio). IFN-gamma and TNF-alpha levels (picograms/mL) were measured by multiplex bead assay (magnetic beads, R & D Systems, Minneapolis, Minn.) according to the manufacturer's instructions.
Specifically, the minimum effective concentration of each compound (micromolar) was determined as the lowest concentration of the compound that induced a measured cytokine response at a level ([…]) that was at least 2× greater than that observed with the negative control wells.

Row | Compound | MEC to Induce Cytokine IFN-alpha | MEC to Induce Cytokine IFN-gamma | MEC to Induce Cytokine TNF-alpha
1 | CCCCCCCCCCCCOc1ccc(C[C@@H](COCC)n2cnc3c(N)nc4ccccc4c32)cc1 [Example 1, 1-[(1 S)-1-[(4-dodecoxyphenyl)methyl]-2-ethoxy-ethyl]imidazo[4,5-c]quinolin-4-amine] | 3.3 µM | 10 µM | 3.3 µM
2 | CCCCCCCCOc1ccc(C[C@@H](COCC)n2cnc3c(N)nc4ccccc4c32)cc1 [Example 2, 1-[(1S)-1-(ethoxymethyl)-2-(4-octoxyphenyl)ethyl]imidazo[4,5-c]quinolin-4-amine] | 0.12 µM | 0.37 µM | 0.37 µM
3 | CCCCOc1ccc(C[C@@H](COCC)n2cnc3c(N)nc4ccccc4c32)cc1 [Example 3, 1-[(1S)-1-[(4-butoxyphenyl)methyl]-2-ethoxy-ethyl]imidazo[4,5-c]quinolin-4-amine] | ≤0.01 µM | ≤0.01 µM | ≤0.01 µM
4 | CCCCCCOc1ccc(C[C@@H](COCC)n2cnc3c(N)nc4ccccc4c32)cc1 [Example 4, 1-[(1S)-1-(ethoxymethyl)-2-(4-hexoxyphenyl)ethyl]imidazo[4,5-c]quinolin-4-amine] | ≤0.01 µM | ≤0.01 µM | ≤0.01 µM
5 | CCCCC(CC)COc1ccc(C[C@@H](COCC)n2cnc3c(N)nc4ccccc4c32)cc1 (stereo partly drawn) [Example 5, 1-[(1 S)-1-(ethoxymethyl)-2-[4-(2-ethylhexoxy)phenyl]ethyl]imidazo[4,5-c]quinolin-4-amine] | 0.37 µM | 0.04 µM | ≤0.01 µM
6 | CCOC[C@H](Cc1ccc(OCc2ccccc2)cc1)n1cnc2c(N)nc3ccccc3c21 [Example 6, 1-[(1S)-1-[(4-benzyloxyphenyl)methyl]-2-ethoxy-ethyl]imidazo[4,5-c]quinolin-4-amine] | ≤0.01 µM | ≤0.01 µM | ≤0.01 µM
